Measurements: US8940756B2, “Dihydronaphthyridines and related compounds useful as kinase inhibitors for the treatment of proliferative diseases” (Deciphera Pharmaceuticals, Inc., priority 2012, dated 2015)
pIC50: −log10 of the molar value.

Columns and labels:
[1] = molecular target: T1, c-KIT VVDV kinase (V559 and V560 deleted and D816V mutation, Seq ID no. 5) (Homo sapiens, UniProt P10721, D816V/DEL559-560); experiment: cKIT-VVDV Kinase Assay; type: biochemical; settings: enzymatic assay, ATP 200 uM
T1 construct: This construct contains residues T544-V976 of cKit (except for the D816V mutation and the deletion of residues V559 and V560); GST (N); TEV cleavage site (N); purchased deCODE Biostructures
T1 sequence (P10721 with tags, fused parts or gaps DEL559-560/D816V): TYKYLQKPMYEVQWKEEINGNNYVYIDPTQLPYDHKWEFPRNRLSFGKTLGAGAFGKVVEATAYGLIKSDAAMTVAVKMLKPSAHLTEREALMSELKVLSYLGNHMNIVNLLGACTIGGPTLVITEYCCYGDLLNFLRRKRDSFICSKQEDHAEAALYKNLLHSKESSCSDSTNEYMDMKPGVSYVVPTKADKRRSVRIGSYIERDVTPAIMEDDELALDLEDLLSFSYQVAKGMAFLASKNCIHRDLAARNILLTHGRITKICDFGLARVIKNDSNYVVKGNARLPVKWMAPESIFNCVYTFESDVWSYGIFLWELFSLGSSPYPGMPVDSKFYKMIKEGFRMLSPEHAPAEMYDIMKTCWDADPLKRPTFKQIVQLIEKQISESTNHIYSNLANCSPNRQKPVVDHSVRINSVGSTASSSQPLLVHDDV
Protocol: In this assay, the oxidation of NADH (measured by decrease in absorbance at 340 nm) was continuously monitored spectrophotometrically. […] The inhibition reaction was started by mixing serial diluted test compound with the above reaction mixture. The absorption at 340 nm was monitored continuously for 5 hours at 30° C. on Synergy 2 plate reader (BioTech). […] The protein construct was prepared by deCODE Biostructures using procedures known in the art. This construct contains […] of cKit (except for the D816V […]), an N-terminal tag, a GST-fusion sequence and a TEV cleavage site. This construct is identical to Seq ID no. 1 except for the D816V […].

[2] = molecular target: Phospho-KIT (Tyr719) in GIST430 cells (Homo sapiens, UniProt P10721); experiment: GIST430 KIT Western Blot; type: cell-based; settings: 4 hours, read-out: pKIT suppression by western blot analysi GIST430
Sequence of Phospho-KIT (Tyr719) in GIST430 cells (P10721 with tags, fused parts or gaps DEL560-576/V654A, form open): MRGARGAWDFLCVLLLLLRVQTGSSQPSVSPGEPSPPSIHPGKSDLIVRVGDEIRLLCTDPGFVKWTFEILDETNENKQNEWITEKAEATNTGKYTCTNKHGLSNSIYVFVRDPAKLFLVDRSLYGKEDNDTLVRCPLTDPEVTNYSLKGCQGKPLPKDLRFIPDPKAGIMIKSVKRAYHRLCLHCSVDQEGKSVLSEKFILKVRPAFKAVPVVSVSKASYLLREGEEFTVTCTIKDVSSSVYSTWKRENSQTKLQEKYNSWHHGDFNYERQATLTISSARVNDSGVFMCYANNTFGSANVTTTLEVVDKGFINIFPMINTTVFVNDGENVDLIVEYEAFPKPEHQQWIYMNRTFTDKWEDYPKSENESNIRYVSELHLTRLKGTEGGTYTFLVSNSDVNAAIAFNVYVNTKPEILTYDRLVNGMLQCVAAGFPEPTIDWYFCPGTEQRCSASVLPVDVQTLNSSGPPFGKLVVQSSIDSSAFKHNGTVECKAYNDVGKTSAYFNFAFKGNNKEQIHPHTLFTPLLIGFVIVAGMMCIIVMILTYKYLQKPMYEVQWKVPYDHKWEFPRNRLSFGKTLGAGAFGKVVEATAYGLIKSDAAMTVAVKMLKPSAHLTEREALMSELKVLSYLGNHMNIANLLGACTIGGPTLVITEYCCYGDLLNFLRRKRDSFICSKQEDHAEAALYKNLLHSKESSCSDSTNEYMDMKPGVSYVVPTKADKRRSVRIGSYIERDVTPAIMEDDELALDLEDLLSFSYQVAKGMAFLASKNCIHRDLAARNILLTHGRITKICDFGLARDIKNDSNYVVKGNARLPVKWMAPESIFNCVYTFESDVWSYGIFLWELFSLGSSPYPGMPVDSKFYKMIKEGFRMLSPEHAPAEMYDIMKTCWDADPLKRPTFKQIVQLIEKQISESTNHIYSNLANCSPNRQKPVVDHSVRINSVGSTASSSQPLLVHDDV

[3] = molecular target: T2, Phospho-KIT (Tyr719) in GIST T1 cells (Homo sapiens, UniProt P10721, DEL560-578); experiment: GIST T1 KIT Western Blot; type: cell-based; settings: 4 hours, read-out: pKIT suppression by western blot analysi GIST T1
T2 construct: endogenous in cells; host or cells: GIST T1
T2 sequence (P10721 with tags, fused parts or gaps DEL560-578): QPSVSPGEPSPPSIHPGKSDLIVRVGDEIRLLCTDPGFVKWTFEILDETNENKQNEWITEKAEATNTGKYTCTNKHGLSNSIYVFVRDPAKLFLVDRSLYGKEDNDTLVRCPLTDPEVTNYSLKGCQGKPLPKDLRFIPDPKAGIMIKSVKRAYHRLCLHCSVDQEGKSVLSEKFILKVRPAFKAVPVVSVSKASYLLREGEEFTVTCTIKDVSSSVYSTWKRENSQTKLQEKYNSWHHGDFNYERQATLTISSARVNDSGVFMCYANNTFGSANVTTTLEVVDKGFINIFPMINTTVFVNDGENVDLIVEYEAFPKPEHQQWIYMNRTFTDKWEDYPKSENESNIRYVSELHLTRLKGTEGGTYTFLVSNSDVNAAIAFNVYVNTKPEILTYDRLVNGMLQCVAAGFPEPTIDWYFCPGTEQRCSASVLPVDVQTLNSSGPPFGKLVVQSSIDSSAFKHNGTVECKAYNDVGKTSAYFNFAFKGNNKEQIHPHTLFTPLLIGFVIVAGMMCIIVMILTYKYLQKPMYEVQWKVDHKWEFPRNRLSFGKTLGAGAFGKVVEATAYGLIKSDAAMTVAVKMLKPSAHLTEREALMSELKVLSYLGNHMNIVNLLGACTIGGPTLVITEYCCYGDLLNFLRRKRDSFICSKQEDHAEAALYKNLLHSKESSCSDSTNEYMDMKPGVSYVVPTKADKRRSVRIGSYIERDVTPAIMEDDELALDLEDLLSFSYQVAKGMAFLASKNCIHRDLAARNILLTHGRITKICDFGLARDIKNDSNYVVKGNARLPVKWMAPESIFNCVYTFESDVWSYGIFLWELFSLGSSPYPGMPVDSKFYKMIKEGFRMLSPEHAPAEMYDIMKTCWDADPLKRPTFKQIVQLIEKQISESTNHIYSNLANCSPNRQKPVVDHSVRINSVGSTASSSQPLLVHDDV
Protocol: GIST48, GIST430, and GIST882 cells were obtained from J. Fletcher (Brigham and Women's Hospital, Boston, Mass.). GIST T1 cells were obtained from B. Rubin (Cleveland Clinic, Cleveland, Ohio) and Professor Takahiro Taguchi (Kochi Medical School, Nankoku, Kochi, Japan). […] GIST430 cells were grown in Ham's F10 medium supplemented with 15% characterized fetal bovine serum (Invitrogen, Carlsbad, Calif.), 30 mg/L bovine pituitary extract (BD Biosciences, San Jose, Calif.), 0.5% Mito+ serum extender (BD Biosciences, San Jose, Calif.), 1 unit/mL penicillin G, 1 μg/ml streptomycin, and 0.29 mg/mL L-glutamine at 37° C., 5% CO2, 95% humidity. GIST T1 cells were grown in DMEM medium supplemented with 10% characterized fetal bovine serum (Invitrogen, Carlsbad, Calif.), 1 unit/mL penicillin G, 1 ng/ml streptomycin, and 0.29 mg/mL L-glutamine at 37° C., 5% CO2, and 95% humidity. […]
One hundred twenty-five thousand cells were added per well in a 24-well tissue-culture treated plate. […] Phospho-KIT (Tyr719) was detected using an antibody from Cell Signaling Technology (Beverly, Mass.), ECL Plus detection reagent (GE Healthcare, Piscataway, N.J.) and a Molecular Devices Storm 840 phosphorimager in fluorescence mode. […] IC50 values were calculated using Prism software (Graphpad, San Diego, Calif.).

[4] = molecular target: T3, Phospho-KIT (Tyr719) in GIST882 cells (Homo sapiens, UniProt P10721, K642E); experiment: GIST882 KIT Western Blot; type: cell-based; settings: 4 hours, read-out: pKIT suppression by western blot analysi GIST 882
T3 construct: endogenous in cells; host or cells: GIST882
T3 sequence (P10721 26-976 K642E): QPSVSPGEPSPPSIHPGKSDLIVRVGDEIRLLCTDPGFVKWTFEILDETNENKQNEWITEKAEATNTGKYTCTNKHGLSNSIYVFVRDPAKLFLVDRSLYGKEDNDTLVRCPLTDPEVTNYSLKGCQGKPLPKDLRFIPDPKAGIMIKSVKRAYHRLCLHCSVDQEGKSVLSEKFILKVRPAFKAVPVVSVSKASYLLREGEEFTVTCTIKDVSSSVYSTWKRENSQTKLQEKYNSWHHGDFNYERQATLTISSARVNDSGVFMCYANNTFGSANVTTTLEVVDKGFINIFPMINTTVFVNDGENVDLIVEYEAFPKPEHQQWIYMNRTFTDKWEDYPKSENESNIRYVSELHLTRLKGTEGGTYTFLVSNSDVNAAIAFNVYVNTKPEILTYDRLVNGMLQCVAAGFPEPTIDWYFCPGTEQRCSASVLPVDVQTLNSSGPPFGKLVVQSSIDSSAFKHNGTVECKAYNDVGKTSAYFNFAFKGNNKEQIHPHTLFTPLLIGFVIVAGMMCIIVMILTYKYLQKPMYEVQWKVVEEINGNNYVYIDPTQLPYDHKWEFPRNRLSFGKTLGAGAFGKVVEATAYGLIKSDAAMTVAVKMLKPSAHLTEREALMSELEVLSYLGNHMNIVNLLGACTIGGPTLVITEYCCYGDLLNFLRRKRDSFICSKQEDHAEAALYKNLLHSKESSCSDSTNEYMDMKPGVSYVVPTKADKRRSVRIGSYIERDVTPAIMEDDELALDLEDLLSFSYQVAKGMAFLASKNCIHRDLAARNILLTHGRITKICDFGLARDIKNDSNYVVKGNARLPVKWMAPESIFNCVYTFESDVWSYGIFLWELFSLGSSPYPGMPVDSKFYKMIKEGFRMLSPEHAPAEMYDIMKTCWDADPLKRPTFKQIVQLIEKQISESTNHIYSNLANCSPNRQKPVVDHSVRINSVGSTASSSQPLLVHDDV
Protocol: GIST48, GIST430, and GIST882 cells were obtained from J. Fletcher (Brigham and Women's Hospital, Boston, Mass.). GIST T1 cells were obtained from B. Rubin (Cleveland Clinic, Cleveland, Ohio) and Professor Takahiro Taguchi (Kochi Medical School, Nankoku, Kochi, Japan). […] GIST430 cells were grown in Ham's F10 medium supplemented with 15% characterized fetal bovine serum (Invitrogen, Carlsbad, Calif.), 30 mg/L bovine pituitary extract (BD Biosciences, San Jose, Calif.), 0.5% Mito+ serum extender (BD Biosciences, San Jose, Calif.), 1 unit/mL penicillin G, 1 μg/ml streptomycin, and 0.29 mg/mL L-glutamine at 37° C., 5% CO2, 95% humidity. GIST T1 cells were grown in DMEM medium supplemented with 10% characterized fetal bovine serum (Invitrogen, Carlsbad, Calif.), 1 unit/mL penicillin G, 1 ng/ml streptomycin, and 0.29 mg/mL L-glutamine at 37° C., 5% CO2, and 95% humidity. Cells were allowed to expand until reaching 70-95% confluence at which point they were subcultured or harvested for assay use.
Two hundred fifty thousand cells were added per well in a 24-well tissue-culture treated plate. Cells were then incubated overnight at 37° C., 5% CO2, 95% humidity. Medium was aspirated, cells were washed with PBS, and serum-free RPMI1640 medium was added. A serial dilution of test compound was added to plates containing cells and plates were incubated for 4 hours at 37° C., 5% CO2, 95% humidity. Cells were washed with PBS, then lysed. Cell lysates were separated by SDS-PAGE and transferred to PVDF. Phospho-KIT (Tyr719) was detected using an antibody from Cell Signaling Technology (Beverly, Mass.), ECL Plus detection reagent (GE Healthcare, Piscataway, N.J.) and a Molecular Devices Storm 840 phosphorimager in fluorescence mode. Blots were stripped and probed for total KIT using an antibody from Santa Cruz Biotech (Santa Cruz, Calif.). IC50 values were calculated using Prism software (Graphpad, San Diego, Calif.).

Row | SMILES | pIC50 [1] | pIC50 [2] | pIC50 [3] | pIC50 [4]
1 | CCn1c(=O)c(-c2cc(NC(=O)Nc3ccccc3)c(F)cc2Cl)cc2cnc(N)cc21 [Example 21, 1-(5-(7-amino-1-ethyl-2-oxo-1,2-dihydro-1,6-naphthyridin-3-yl)-4-chloro-2-fluorophenyl)-3-phenylurea] | > 8.00 | > 8.00 | > 8.00 | 7.00 to 8.00
2 | CCn1c(=O)c(-c2cc(NC(=O)Nc3cccc(CN4CCN(C)CC4)c3)c(F)cc2Cl)cc2cnc(NC)cc21 [Example 79, 1-(4-chloro-5-(1-ethyl-7-(methylamino)-2-oxo-1,2-dihydro-1,6-naphthyridin-3-yl)-2-fluorophenyl)-3-(3-((4-methylpiperazin-1-yl)methyl)phenyl)urea] | < 6.00 | 7.00 to 8.00 |  | < 6.00
3 | CCn1c(=O)c(-c2cc(NC(=O)Nc3cc(F)cc(CN4CCN(C)CC4)c3)c(F)cc2Cl)cc2cnc(NC)cc21 [Example 88, 1-(4-chloro-5-(1-ethyl-7-(methylamino)-2-oxo-1,2-dihydro-1,6-naphthyridin-3-yl)-2-fluorophenyl)-3-(3-fluoro-5-((4-methylpiperazin-1-yl)methyl)phenyl)urea] |  | 7.00 to 8.00 | > 8.00 | 6.00 to 7.00
